The values that follow come from the supplement of paper PMC10307832.

Holding throughout (test): relative viability (nuclei count vs DMSO), 5 days (fraction); higher = more cells survive
Compound in the test “Kobe2602 + Trametinib”: C1=CC(=CC=C1NC(=S)NNC2=C(C=C(C=C2[N+](=O)[O-])C(F)(F)F)[N+](=O)[O-])F [Kobe2602] + CC(=O)Nc1cccc(-n2c(=O)n(C3CC3)c(=O)c3c(Nc4ccc(I)cc4F)n(C)c(=O)c(C)c32)c1 [Trametinib] (partner 0.02 µM)
The gist of the method: (§1)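 Values are medians from duplicate plates. Each reflects relative viability, defined as the nuclei count of treated wells over that of vehicle wells. Lung cancer cell lines in 1536-well plates were pin-tool dosed one day after seeding with one drug alone or with a fixed anchor-drug dose plus five library-drug doses (not always all listed) in √10 steps, then fixed, stained and imaged at 4× after 5 days.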

Compound in the test “Kobe2602 + Pictilisib”: C1=CC(=CC=C1NC(=S)NNC2=C(C=C(C=C2[N+](=O)[O-])C(F)(F)F)[N+](=O)[O-])F [Kobe2602] + CS(=O)(=O)N1CCN(Cc2cc3nc(-c4cccc5[nH]ncc45)nc(N4CCOCC4)c3s2)CC1 [Pictilisib] (partner 1 µM)
The gist of the method:
as §1

Compound in the test “Cabozantinib + Alpelisib”: COc1cc2nccc(Oc3ccc(NC(=O)C4(C(=O)Nc5ccc(F)cc5)CC4)cc3)c2cc1OC [Cabozantinib] + Cc1nc(NC(=O)N2CCC[C@H]2C(N)=O)sc1-c1ccnc(C(C)(C)C(F)(F)F)c1 [Alpelisib] (partner 2 µM)
In outline: as §1

Compound in the test “Zosuquidar + Phenformin”: O[C@@H](COc1cccc2ncccc12)CN1CCN([C@@H]2c3ccccc3[C@@H]3[C@H](c4ccccc42)C3(F)F)CC1 [Zosuquidar] + N=C(N)NC(=N)NCCc1ccccc1 [Phenformin] (partner 250 µM)
The gist of the method:
as §1

NCI-H2085: the relative viability with Kobe2602 + Trametinib (first compound 0.2 µM) was 0.614; with Kobe2602 + Trametinib (first compound 0.6325 µM), 0.516; with Kobe2602 + Trametinib (first compound 2 µM), 0.491; with Kobe2602 + Trametinib (first compound 6.325 µM), 0.409; with Kobe2602 + Trametinib (first compound 20 µM), 0.514; with Kobe2602 + Pictilisib (first compound 0.2 µM), 0.484. For the same cell line, the relative viability with Kobe2602 + Pictilisib (first compound 0.6325 µM) turned out to be 0.448; with Kobe2602 + Pictilisib (first compound 2 µM), 0.483; with Kobe2602 + Pictilisib (first compound 6.325 µM), 0.466; with Kobe2602 + Pictilisib (first compound 20 µM) it was 0.489; in the test with Cabozantinib + Alpelisib (first compound 0.02 µM), 1.15; with Cabozantinib + Alpelisib (first compound 0.06325 µM), 1.01. Further, the relative viability with Cabozantinib + Alpelisib (first compound 0.2 µM) was 0.982; with Cabozantinib + Alpelisib (first compound 0.6325 µM), 0.915; in the test with Cabozantinib + Alpelisib (first compound 2 µM) it was 0.843; in the test with Zosuquidar + Phenformin (first compound 0.01 µM), 0.736; with Zosuquidar + Phenformin (first compound 0.03162 µM) it was 0.682; with Zosuquidar + Phenformin (first compound 0.1 µM), 0.479. Also, the values for the relative viability with Zosuquidar + Phenformin (first compound 0.3162 µM) and with Zosuquidar + Phenformin (first compound 1 µM) were 0.877 and 0.69, respectively.

As to NCI-H2087, the relative viability in the test with Kobe2602 + Trametinib (first compound 0.2 µM) worked out at 0.29; with Kobe2602 + Trametinib (first compound 0.6325 µM), 0.188; with Kobe2602 + Trametinib (first compound 2 µM) it was 0.173; with Kobe2602 + Trametinib (first compound 6.325 µM), 0.196; with Kobe2602 + Trametinib (first compound 20 µM), 0.191; with Kobe2602 + Pictilisib (first compound 0.2 µM), 0.86. Besides, the relative viability with Kobe2602 + Pictilisib (first compound 0.6325 µM) amounted to 0.832; in the test with Kobe2602 + Pictilisib (first compound 2 µM), 0.78; in the test with Kobe2602 + Pictilisib (first compound 6.325 µM), 0.841; with Kobe2602 + Pictilisib (first compound 20 µM) it was 0.95; with Cabozantinib + Alpelisib (first compound 0.02 µM) it was 1.07; with Cabozantinib + Alpelisib (first compound 0.06325 µM) it was 1.12. Further, the relative viability with Cabozantinib + Alpelisib (first compound 0.2 µM) was 0.978; with Cabozantinib + Alpelisib (first compound 0.6325 µM) it was 1.03; with Cabozantinib + Alpelisib (first compound 2 µM), 0.995; in the test with Zosuquidar + Phenformin (first compound 0.01 µM) it was 0.426; with Zosuquidar + Phenformin (first compound 0.1 µM), 0.363; with Zosuquidar + Phenformin (first compound 0.3162 µM), 0.545. In addition, the relative viability with Zosuquidar + Phenformin (first compound 1 µM) was 0.492.

For NCI-H2126, the relative viability with Kobe2602 + Trametinib (first compound 0.2 µM) worked out at 0.594; in the test with Kobe2602 + Trametinib (first compound 0.6325 µM), 0.598; with Kobe2602 + Trametinib (first compound 2 µM), 0.52; with Kobe2602 + Trametinib (first compound 6.325 µM), 0.577; with Kobe2602 + Trametinib (first compound 20 µM) it was 0.459; with Kobe2602 + Pictilisib (first compound 0.2 µM), 0.508. The relative viability stood at 0.508 in the test with Kobe2602 + Pictilisib (first compound 0.6325 µM); 0.485 in the test with Kobe2602 + Pictilisib (first compound 2 µM); 0.475 in the test with Kobe2602 + Pictilisib (first compound 6.325 µM); 0.492 with Kobe2602 + Pictilisib (first compound 20 µM); 0.798 in the test with Cabozantinib + Alpelisib (first compound 0.02 µM); 0.764 with Cabozantinib + Alpelisib (first compound 0.06325 µM). The relative viability is 0.73 with Cabozantinib + Alpelisib (first compound 0.2 µM); 0.755 in the test with Cabozantinib + Alpelisib (first compound 0.6325 µM); 0.765 with Cabozantinib + Alpelisib (first compound 2 µM); 0.544 with Zosuquidar + Phenformin (first compound 0.01 µM); 0.542 with Zosuquidar + Phenformin (first compound 0.03162 µM); 0.539 with Zosuquidar + Phenformin (first compound 0.3162 µM). In the test with Zosuquidar + Phenformin (first compound 1 µM), the relative viability is 0.532.

As to NCI-H2170, the relative viability with Kobe2602 + Trametinib (first compound 0.2 µM) was 0.982; with Kobe2602 + Trametinib (first compound 0.6325 µM), 0.918; with Kobe2602 + Trametinib (first compound 2 µM), 0.921; in the test with Kobe2602 + Trametinib (first compound 6.325 µM) it was 0.878; in the test with Kobe2602 + Trametinib (first compound 20 µM), 0.922; in the test with Kobe2602 + Pictilisib (first compound 0.2 µM) it was 0.325. The relative viability was found to be 0.327 with Kobe2602 + Pictilisib (first compound 0.6325 µM); 0.329 with Kobe2602 + Pictilisib (first compound 2 µM); 0.324 with Kobe2602 + Pictilisib (first compound 6.325 µM); 0.344 with Kobe2602 + Pictilisib (first compound 20 µM); 0.842 in the test with Cabozantinib + Alpelisib (first compound 0.02 µM); 0.958 with Cabozantinib + Alpelisib (first compound 0.06325 µM). In addition, the relative viability with Cabozantinib + Alpelisib (first compound 0.2 µM) was 0.723; with Cabozantinib + Alpelisib (first compound 0.6325 µM), 0.854; with Cabozantinib + Alpelisib (first compound 2 µM) it was 0.781; in the test with Zosuquidar + Phenformin (first compound 0.01 µM), 0.388; in the test with Zosuquidar + Phenformin (first compound 0.03162 µM), 0.463; in the test with Zosuquidar + Phenformin (first compound 0.1 µM) it was 0.393. Moreover, the relative viability with Zosuquidar + Phenformin (first compound 0.3162 µM) is 0.395; with Zosuquidar + Phenformin (first compound 1 µM), 0.445.

As for NCI-H2228, the relative viability in the test with Kobe2602 + Trametinib (first compound 0.2 µM) is 0.645; with Kobe2602 + Trametinib (first compound 0.6325 µM), 0.612; with Kobe2602 + Trametinib (first compound 2 µM), 0.41; with Kobe2602 + Trametinib (first compound 6.325 µM), 0.461; with Kobe2602 + Trametinib (first compound 20 µM), 0.742; with Kobe2602 + Pictilisib (first compound 0.2 µM), 0.552. The relative viability in the test with Kobe2602 + Pictilisib (first compound 0.6325 µM) amounted to 0.372; with Kobe2602 + Pictilisib (first compound 2 µM) it was 0.334; with Kobe2602 + Pictilisib (first compound 6.325 µM), 0.334; in the test with Kobe2602 + Pictilisib (first compound 20 µM), 0.33; in the test with Cabozantinib + Alpelisib (first compound 0.02 µM), 0.794; in the test with Cabozantinib + Alpelisib (first compound 0.06325 µM), 0.922. Also, the relative viability with Cabozantinib + Alpelisib (first compound 0.2 µM) stood at 0.784; with Cabozantinib + Alpelisib (first compound 0.6325 µM) it was 0.564; with Cabozantinib + Alpelisib (first compound 2 µM) it was 0.711; in the test with Zosuquidar + Phenformin (first compound 0.01 µM) it was 0.291; with Zosuquidar + Phenformin (first compound 0.03162 µM) it was 0.338; in the test with Zosuquidar + Phenformin (first compound 0.1 µM), 0.256. The relative viability in the test with Zosuquidar + Phenformin (first compound 0.3162 µM) came out at 0.47; with Zosuquidar + Phenformin (first compound 1 µM), 0.257.

As to NCI-H2347, the relative viability was determined as 0.291 in the test with Kobe2602 + Trametinib (first compound 0.2 µM); 0.251 with Kobe2602 + Trametinib (first compound 0.6325 µM); 0.336 with Kobe2602 + Trametinib (first compound 2 µM); 0.304 with Kobe2602 + Trametinib (first compound 6.325 µM); 0.326 with Kobe2602 + Trametinib (first compound 20 µM); 0.745 in the test with Kobe2602 + Pictilisib (first compound 0.2 µM). In addition, the relative viability in the test with Kobe2602 + Pictilisib (first compound 0.6325 µM) is 0.843; in the test with Kobe2602 + Pictilisib (first compound 2 µM), 0.716; with Kobe2602 + Pictilisib (first compound 6.325 µM), 0.558; with Kobe2602 + Pictilisib (first compound 20 µM) it was 0.611; with Cabozantinib + Alpelisib (first compound 0.02 µM) it was 1.2; with Cabozantinib + Alpelisib (first compound 0.06325 µM), 1.15. Also, the relative viability with Cabozantinib + Alpelisib (first compound 0.2 µM) stood at 1.01; in the test with Cabozantinib + Alpelisib (first compound 0.6325 µM) it was 0.985; with Cabozantinib + Alpelisib (first compound 2 µM), 0.668; in the test with Zosuquidar + Phenformin (first compound 0.01 µM), 0.411; with Zosuquidar + Phenformin (first compound 0.03162 µM), 0.394; in the test with Zosuquidar + Phenformin (first compound 0.1 µM), 0.253. The relative viability was 0.396 in the test with Zosuquidar + Phenformin (first compound 0.3162 µM) and 0.426 in the test with Zosuquidar + Phenformin (first compound 1 µM).

Consider NCI-H2405, for which the relative viability in the test with Kobe2602 + Trametinib (first compound 0.2 µM) came to 0.644; with Kobe2602 + Trametinib (first compound 0.6325 µM), 0.712; with Kobe2602 + Trametinib (first compound 2 µM) it was 0.621; with Kobe2602 + Trametinib (first compound 6.325 µM), 0.66; with Kobe2602 + Trametinib (first compound 20 µM) it was 0.669; with Kobe2602 + Pictilisib (first compound 0.2 µM) it was 0.459. Moreover, the relative viability worked out at 0.41 in the test with Kobe2602 + Pictilisib (first compound 0.6325 µM); 0.413 with Kobe2602 + Pictilisib (first compound 2 µM); 0.425 with Kobe2602 + Pictilisib (first compound 6.325 µM); 0.536 with Kobe2602 + Pictilisib (first compound 20 µM); 0.858 with Cabozantinib + Alpelisib (first compound 0.06325 µM); 0.838 with Cabozantinib + Alpelisib (first compound 0.2 µM). The relative viability with Cabozantinib + Alpelisib (first compound 0.6325 µM) was 0.744; with Cabozantinib + Alpelisib (first compound 2 µM), 0.67; with Zosuquidar + Phenformin (first compound 0.01 µM), 0.406; in the test with Zosuquidar + Phenformin (first compound 0.03162 µM), 0.348; with Zosuquidar + Phenformin (first compound 0.1 µM), 0.344; with Zosuquidar + Phenformin (first compound 0.3162 µM), 0.46. For the same cell line, the relative viability with Zosuquidar + Phenformin (first compound 1 µM) turned out to be 0.388.
